In US9750705B2, “Agents useful for treating obesity, diabetes and related disorders” (The Regents of the University of California, priority 2012, dated 2017):
Where a name gives a salt, the structure may show the parent alone.

Assays:
[1] = Basal blood glucose in mice after daily drug administration; type: in vivo; settings: 2.5 mg/kg I.P. for 4 days
Protocol: Groups of age/sex matched mice of Control and ShcKO genotypes were food deprived for four hours and challenged with I.P. injection of insulin, and glucose concentration was determined in blood exactly at indicated time-points. Decrease and recovery of blood glucose was calculated as a % of basal level (the time-point before insulin injection). Basal levels of glucose were measured in triplicate for each mouse. For the GTT, the same groups of mice were fasted during fourteen hours and challenged with glucose injection I.P., analogously the blood glucose concentrations were measured.
Groups of mice, ten for the experimental drug treatment and 14 for the placebo treatment were subject for I.P. administration of a drug or placebo solutions daily during four days. Acarbose, a known drug which decreases blood glucose concentration was used as a control. The insulin tolerance test, ITT was performed on the mice as described previously, in Example 2.

phospho-Shc = test: Western blot of phospho-Shc (Shc activation); type: cell-based; settings: dose response
Protocol: Assays to identify compounds useful for preventing, reducing, delaying or inhibiting symptoms of impaired insulin sensitivity, glucose intolerance or obesity can be performed in vitro. Candidate agents can be contacted with a population of test cells in the presence of insulin (e.g., 1 nM, 5 nM, 10 nM, 100 nM or more). An agent that prevents, reduces, delays or inhibits one or more symptoms of impaired insulin sensitivity, glucose intolerance or obesity increases the ratio of levels of phospho-Akt-1 over phospho-Erk relative to a control ratio. The increase in ratio of levels of phospho-Akt-1 over phospho-Erk can be determined in comparison to a control population of cells that have not been contacted with insulin or have been contacted with a low concentration of insulin (e.g., less than 0.1 nM) or a population of cells contacted with insulin but not with the compound under test. Ratio of levels of phospho-Akt-1 over phospho-Erk can be determined using a Western blot among other methods. Inhibition of Shc activity can be quantitatively measured by assaying the reduction of stimulatory Shc phosphorylation, using a phospho-Shc specific antibody. Inhibition of Shc expression can be measured using a Western blot. […]

[2] = tested on: phospho-Erk in FL83B cells; test: Western blot of phospho-Erk; type: cell-based, mouse; settings: drug 1 hour, then insulin
Protocol: As explained above and in Example 4, Western blots of phospho-Akt and phospho-Erk are a more accurate and precise and quantitative measure of Akt phosphorylation than ICWB measurements. Insulin-dependent phospho-Akt is a direct measurement of insulin sensitivity, and we expect that Shc inhibitors will stimulate phospho-Akt more than phospho-Erk. All of the drugs listed in FIG. 5A stimulated insulin-dependent phospho-Akt at some concentration. Method. Mouse liver cells FL83B were plated at density of 400.000 cells per well of 6 well plate and cultivated for 48 hours, media was changed to DMEM, 25 mM glucose serum free and 16 hours later the cells were treated with drug at the indicated concentration for one hour. Control wells were treated with the vehicle (DMSO), in certain control wells the metabolic (Akt) insulin signaling was blocked with wortmannin. The cells were induced with indicated concentration of insulin for 10 minutes, total protein was extracted and the Western Blots were performed with indicated antibody as described above. Mouse liver cells FL83B were plated at density of 400.000 cells per well of 6 well plate and cultivated for 48 hours, media was changed to DMEM, 25 mM glucose serum free and 16 hours later the cells were treated with drug at the indicated concentration for one hour. […]

[3] = Insulin tolerance test (ITT) in mice; type: in vivo
[4] = tested on: phospho-Akt in FL83B cells; test: Western blot of insulin-dependent phospho-Akt; type: cell-based, mouse; settings: for insulin-dependent phospho-Akt (P-Akt) signaling/activation: drug 1 hour, insulin 10 minutes
Protocol: As explained above and in Example 4, Western blots of phospho-Akt and phospho-Erk are a more accurate and precise and quantitative measure of Akt phosphorylation than ICWB measurements. Insulin-dependent phospho-Akt is a direct measurement of insulin sensitivity, and we expect that Shc inhibitors will stimulate phospho-Akt more than phospho-Erk. All of the drugs listed in FIG. 5A stimulated insulin-dependent phospho-Akt at some concentration. Method. Mouse liver cells FL83B were plated at density of 400.000 cells per well of 6 well plate and cultivated for 48 hours, media was changed to DMEM, 25 mM glucose serum free and 16 hours later the cells were treated with drug at the indicated concentration for one hour. Control wells were treated with the vehicle (DMSO), in certain control wells the metabolic (Akt) insulin signaling was blocked with wortmannin. The cells were induced with indicated concentration of insulin for 10 minutes, total protein was extracted and the Western Blots were performed with indicated antibody as described above. […]

[5] = tested on: insulin-dependent activation of Akt and ERK in FL83B cells; test: High-throughput in-cell western blot (ICWB) screen for insulin sensitizers: insulin-dependent phospho-Akt versus phospho-Erk; type: cell-based, mouse; settings: for rank in the insulin-sensitizer screen: screen of 1689 molecules
Protocol: Drugs were screened by in-cell western blot (ICWB) for their ability to stimulate phospho-Akt activation in the presence of trace or 10 nM insulin (FIG. 4A). Cells in wells were treated with drugs, and the activity (phosphorylation) of Akt was determined by a phospho-Akt specific antibody. In FIG. 4A, low insulin was given and drugs a, b, c, stimulated Akt activation. In FIG. 4B, 10 nM insulin was given and a, b, and c stimulated signaling over background, and d and e inhibited. […] Drugs were primarily screened for their ability to promote insulin-dependent stimulation of (phospho) Akt, then secondarily screened for lack of activity to stimulate (phospho) Erk, or a high Akt/Erk ratio. Such drugs are expected to cause insulin sensitivity, resistance to obesity, and longevity. Some drugs having these desired characteristics are Shc inhibitors.
FL83B cells were seeded on 384 well plates, 10,000 cells per well in F-12 media supplemented with 10% FBS and 25 mM glucose; 48 hours later the media was replaced with F-12, 25 mM glucose without FBS for sixteen hours; cells were supplemented with assigned drug at desired concentration for 1 hour in duplicate and then, the cells were stimulated with desired concentration of insulin for ten minutes for Akt activation and fifteen minutes for ERK activation measurements. After that time the media was removed and replaced with fixing solution of 5% Formaldehyde in PBS, pH=7.4, 30 minutes later, the fixing solution was replaced with the permeabilization buffer, 0.1% triton X100 in PBS for 40 minutes. […] After the incubation with the secondary antibodies for one hour at room temperature, the wells were washed again two times with the 0.1% tween-20 in PBS and scanned on the Li-Cor Odyssey infrared scanner; images were analyzed with the Li-Cor Odyssey software. […] Phospho-Akt, Phospho-ERK signals than were normalized by tubulin signals in each well and the densitometric results were analyzed to identify drugs which improved metabolic insulin sensitivity without inducing the mitogenic ERK activation. […]

Structure (SMILES)	basal blood glucose [1]	phospho-Shc (Shc activation) (phospho-Shc)	Erk activation [2]	insulin sensitivity in-vivo (ITT) ([3]; 2.5 mg/kg I.P. for 4 days)	P-Akt/P-Erk ratio ([4]; Western blot)	insulin-dependent phospho-Akt (P-Akt) signaling/activation [4]	rank in the insulin-sensitizer screen [5]	insulin sensitivity in vivo (ITT) ([3]; PO, 20 and 50 mg/kg)	P-Akt/P-Erk ratio in the primary screen ([5]; ICWB, FL83B cells)
COc1cc2ncnc(Nc3ccc(Oc4ccccc4)cc3)c2cc1OC [Src I-1]	significantly decreased basal blood glucose	inhibited phospho-Shc activation in dose-dependent manner	decreased Erk activation	increased insulin sensitivity in-vivo	increasing the P-Akt/P-Erk ratio	stimulates insulin-dependent P-Akt signaling	top 35 out of 1689		
COC1=C(OC)C(=O)C(CCCCCCCCCCO)=C(C)C1=O [idebenone]		decreased phospho-Shc in a dose-dependent manner				increased insulin-dependent phospho-Akt activation in a dose-dependent manner		increased insulin sensitivity in vivo	increased P-Akt/P-Erk ratio
CN(C)C(=N)N=C(N)N [metformin, metformin hydrochloride]							top 35 out of 1689		
